From PMC3335845, “In-Vivo Biodistribution and Safety of ^99mTc-LLP2A-HYNIC in Canine Non-Hodgkin Lymphoma” (PLoS ONE, 2012)

How the values were obtained:
[1] = Safety monitoring in dogs (vital signs, blood pressure, complete blood counts, serum biochemistry); format: in vivo; conditions: normal dogs and those with NHL
Description: All 3 dogs were mixed breed dogs and after physical examination were clinically normal. […] Images of the whole body in orthogonal planes were acquired at 2 hours, 4 hours, and 6 hours after injection. Complete blood counts and serum biochemistry were performed before and after imaging.

[2] = Organ uptake by gamma camera scintigraphy (organ:muscle ratio and percent injected dose); format: in vivo, dogs
Description: All dogs were imaged with a Gamma camera (Technicare Omega 500, Solon, Ohio, or IS2, Ottawa, Ontario). Images were obtained of the whole body in overlapping segments, in right lateral, left lateral, and sternal recumbency. Images were obtained to 200,000 counts, with a 256×256 bit matrix and 16-bit depth. A camera standard of 200 uCi in 10 mL of water was included in each image to ensure stable measurements over the scan period. Camera sensitivity was determined by placing the camera standard 30 cm from the detector and scanning for 1 minute. This calibration factor was used to convert individual organ emission counts to mCi.
Chemotherapy consisted of prednisone, vincristine, cyclophosphamide, and L-asparaginase. Two dogs had whole body computed tomography (CT) performed.
ROIs were drawn on the 2 hour images and duplicated for the opposite lateral projection and subsequent time points, and adjusted for altered patient position. […]
Organs that were clearly delineated on conjugate projections (liver, GI, bone marrow, lung) were measured using the geometric mean method, and smaller or peripherally located organs (kidney, mandibular lymph nodes, salivary gland) were measured using the effective point source method. Depth for depth correction was measured on orthogonal images. Lung activity was measured using an ROI in a posterior region and normalized to the total pixels of the lung. […] […] Camera sensitivity was measured using the camera standard. Percent injected dose and organ:muscle ratio were calculated for each imaging study at each time point. Imaging results are presented in graphical format as percent injected dose for each organ evaluated, as well as organ:muscle ratios.

[3] = Whole body activity by handheld monitor at 1 m from the dog; format: in vivo, dogs
From the text: All dogs were held overnight in a protected area with institutionally approved radiation safety protocols. Dogs were released from the facility after whole body radiation levels were less than 0.5 mR/hr at the skin surface and less than 0.05 mR/hr at 1 m.

activated α4β1 integrin = test system: activated α4β1 integrin; set-up: method as in PMID 9479864; conditions: cited from earlier work
[4] = set-up: method as in PMID 16767086; conditions: human plasma; cited from earlier work
canine lymphoma = test system: canine lymphoma; set-up: method as in PMID 16767086, PMID 19289419, PMID 22177114; conditions: in vitro, canine cell lines and tissue samples; less than in human cell lines and xenografts; cited from earlier work
normal lymphocytes = test system: normal lymphocytes; set-up: method as in PMID 16767086, PMID 22177114; conditions: increases with activation; cited from earlier work

Compound	overall safety [1]	route of elimination ([2]; dogs)	organ:muscle ratio ([2]; kidney affected with lymphoma (dog L1), highest ratio of tumor tissues)	organ:muscle ratio ([2]; unaffected kidney in the same dog (L1))	mean whole body activity ([3]; 5 minutes post-injection) [mR/h]	whole body activity, range ([3]; 5 minutes post-injection)	mean whole body activity ([3]; 360 min) [mR/h]	whole body activity ([3]; 24 hours) [mR/h]	affinity to activated α4β1 on lymphoma cells (activated α4β1 integrin)	resistance to proteases [4]	affinity to canine lymphoma (canine lymphoma)	affinity to normal lymphocytes (normal lymphocytes)
Cc1ccccc1NC(=O)Nc1ccc(CC(=O)N[C@@H](CCCCNC(=O)/C=C/c2cccnc2)C(=O)N[C@@H](CCCC(=O)O)C(=O)NC2(C(=O)NCCOCCOCCNC(=O)CCC(=O)NCCOCCOCCNC(=O)CCC(=O)N[C@@H](CCCCNC(=O)c3ccc(NN)nc3)C(N)=O)CCCCC2)cc1 [^99mTc-LLP2A-HYNIC, metal not drawn]	safe	mainly eliminated through the kidneys	7.00	5.27	0.5	0.2–0.8 mR/h	0.13	0.04	–	–	–	–
N-[[4-[[[(2-ethylphenyl)amino]carbonyl]amino]phenyl]acetyl]-N ^ε-6-[(2E)-1-oxo-3-(3-pyridinyl-2-propenyl)]-L-lysyl-L-2-aminohexanedioyl-(1-amino-1-cyclohexane)carboxamide [LLP2A]	–	–	–	–	–	–	–	–	high affinity	resistant to proteases in human plasma	good affinity	mild affinity
